Reference: US20230339834A1, “CHLORINATED FLUOROAROMATICS AND METHODS OF USING SAME” (3M INNOVATIVE PROPERTIES COMPANY, priority 2019, published 2023)

What was measured:
[1] = Log KOW octanol/water partition coefficient by HPLC (OECD 117); assay type: physicochemical; details: HPLC method
Experimental: Values of Log KOW (octanol/water partition coefficients) were determined by HPLC using the method described in Organization for Economic Cooperation and Development (OECD) Test Method 117, “Partition Coefficient (n-octanol/water), HPLC Method.”

[2] = Flash point, small scale closed cup (ASTM D-3278-96 e-1); assay type: physicochemical; details: no flash point = non-flammable
[3] = Density (DDM 2911 plus Automatic Density Meter); assay type: physicochemical
Experimental: Density was measured using DDM 2911 plus Automatic Density Meter. Before measurement, the fluid was briefly degassed in the syringe by stoppering the syringe tip and pulling on the plunger to release bubbles.

[4] = assay type: physicochemical
Experimental: The boiling points reported in Table 1 were determined using the procedures outlined in ASTM E 1719-97 “Standard Test Method for Vapor Pressure of Liquids by Ebulliometry.” First, vapor pressure was measured, and then the boiling point was calculated as described in section 10 of ASTM method […]-97.

[5] = Kinematic viscosity (ASTM D445-94e1); assay type: physicochemical
Experimental: Kinematic viscosity was determined in accordance with ASTM D445-94e1 “Standard Test Method for Kinematic Viscosity of Transparent and Opaque Liquids (the Calculation of Dynamic Viscosity)”, except the bath temperature was controlled to ±0.1° C., using a ViscoSystem AVS 350 viscosity timer (Schott Instruments GmbH, Hattenbergstraße 10 55122 Mainz Germany) and Hagenbach-corrected 545-03, 545-13 or 545-20 Ubbelohde viscometers (Cannon Instruments Company, Box 812, State College, PA). For temperatures below 0° C., a Lawler temperature control bath was used.

[6] = Liquid dielectric breakdown strength (ASTM D877-87); assay type: physicochemical; details: 2.5 mm gap, 60 Hz
Experimental: The liquid dielectric breakdown strength measurements were performed in accordance with ASTM […]-87(1995), “Standard Test Method for Dielectric Breakdown Voltage of Insulating Liquids.” Disk electrodes 25mm in diameter, with 2.5 mm (0.10'') spacing between the electrodes, were utilized with a Phenix Technologies Model LD 60 that is specifically designed for testing in the 7-60 kV, 60 Hz (higher voltage) breakdown range. For this experiment, a frequency of 60 Hz and a ramp rate of 500 volts per second were utilized, as is typical.

[7] = Dielectric constant (ASTM D150-11, broadband dielectric spectrometer); assay type: physicochemical
Experimental: Dielectric constants were measured using an Alpha-A High Temperature Broadband Dielectric Spectrometer (Novocontrol Technologies, Montabaur, Germany) in accordance with ASTM D150-11, “Standard Test Methods for AC Loss Characteristics and Permittivity (Dielectric Constant) of Solid Electrical Insulation.” The parallel plate electrode configuration was selected for this measurement. The sample cell of parallel plates, an Agilent 16452A liquid test fixture consisting of 38 mm diameter parallel plates (Keysight Technologies, Santa Rosa, CA, US) was interfaced to the Alpha-A mainframe while utilizing the ZG2 Dielectric/Impedance General Purpose Interface available from Novocontrol Technologies. Each sample was prepared between parallel plate electrodes with a spacing, d, (typically, d=1 mm) and the complex permittivity (dielectric constant and loss) were evaluated from the phase sensitive measurement of the electrodes voltage difference (Vs) and current (Is). Frequency domain measurements were carried out at discrete frequencies from 0.00001 Hz to 1 MHz. Impedances from 10 milliohms up to 1×10^14 ohms were measured up to a maximum of 4.2 volts AC. For this experiment, however, a fixed AC voltage of 1.0 volts was used. The DC conductivity (the inverse of volume resistivity) can also be extracted from an optimized broadband dielectric relaxation fit function that contains at least one term of the low frequency Havrrilak Negami dielectric relaxation function and one separate frequency dependent conductivity term.

[8] = assay type: physicochemical; details: 200±2° C., 31.5 days, sealed borosilicate tube
Experimental: To evaluate thermal stability, a flame-sealed borosilicate glass tube (50 mm outer diameter, 0.4 mm wall thickness) containing Example 1 [1.0 g, isomeric mixture of 4-Cl(C6H4)O(C9F17)] was completely submerged in a temperature-controlled oil bath at 200±2° C. for 31.5 days.

SMILES	Log Kow [1]	Flash Point [2]	Density at 25° C. [3] [g/mL]	Boiling Point [4] [°C]	Viscosity at 0° C. [5] [cSt]	Dielectric strength [6] [kV]	Dielectric Constant @ 1 kHz [7]	4-Cl(C6H4)O(C9F17) isomers by GC-FID, before and after heating [8] [%]	Boiling point above non-chlorinated analog [4]
F/C(=C(/C(F)(F)F)C(F)(Oc1ccccc1)C(F)(F)C(F)(F)F)C(F)(C(F)(F)F)C(F)(F)F (centres unmarked) [CE1, (E)-((1,1,1,2,2,3,5,6,7,7,7-Undecafluoro-4,6-bis(trifluoromethyl)hept-4-en-3-yl)oxy)benzene]	>6.4	None	1.62	201	8.7	38.1	4.42		
F/C(=C(/C(F)(F)F)C(F)(Oc1ccc(Cl)cc1)C(F)(F)C(F)(F)F)C(F)(C(F)(F)F)C(F)(F)F (centres unmarked) [Ex. 1, (E)-1-chloro-4-((1,1,1,2,2,3,5,6,7,7,7-undecafluoro-4,6-bis(trifluoromethyl)hept-4-en-3-yl)oxy)benzene]	>6.4	None	1.65	223	24.1	46.6	2.57	99.9±0.1	at least 22 °C
F/C(=C(/C(F)(F)F)C(F)(Oc1ccc(F)cc1)C(F)(F)C(F)(F)F)C(F)(C(F)(F)F)C(F)(F)F (centres unmarked) [CE3, (E)-1-fluoro-4-((1,1,1,2,2,3,5,6,7,7,7-undecafluoro-4,6-bis(trifluoromethyl)hept-4-en-3-yl)oxy)benzene]	>6.4	None	1.68	206	11.8	38.1	2.63		5 °C
FC(F)(F)C(=C(Oc1ccc(Cl)cc1)C(F)(F)C(F)(F)F)C(F)(F)F [Ex. 2, 1-chloro-4-((1,1,1,4,4,5,5,5-octafluoro-2-(trifluoromethyl)pent-2-en-3-yl)oxy)benzene]		None	1.58	193	8.4	50.7	2.76		at least 22 °C
FC(F)(F)C(=C(Oc1ccccc1)C(F)(F)C(F)(F)F)C(F)(F)F [CE2]	5.5	None	1.51	169	3.6	31.1	5.16		
F/C(=C(/C(F)(F)F)C(F)(Oc1cc(Cl)cc(Cl)c1)C(F)(F)C(F)(F)F)C(F)(C(F)(F)F)C(F)(F)F (centres unmarked) [Ex. 3, (E)-1,3-dichloro-5-((1,1,1,2,2,3,5,6,7,7,7-undecafluoro-4,6-bis(trifluoromethyl)hept-4-en-3-yl)oxy)benzene]		None	1.70	237	40.8		2.54		35 °C
